In brackets after ≈: the same amount, converted by molar mass. Where two headings read alike, the source gives them in different places.
How the values were obtained:
[1] = test system: Septoria tritici (St); test: In vitro pathogen growth inhibition assay, St; assay type: cell-based; settings: Zymoseptoria tritici, 48 h
Outline: (§1)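 Value reported is the compound concentration reaching ≥90% growth inhibition, from OD readings at 24 and 48 h after blank subtraction, confirmed visually. Inoculum was spores diluted in 17% V8 medium, except Rs, using 1.5 mm mycelial plugs in ¼ PDB; actual compound concentration corrected via OD600.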

[2] = test system: Pythium ultimum; test: Seed protectant for soybean seedling disease, P. ultimum; assay type: in vivo; settings: soybean from treated seeds, 0.025 mg/seed, P. ultimum inoculated; for Plant Weight: fresh weight at 14 days; for Improvement in plant weight: percentage of non-inoculated non-treated controls
Protocol: (§2) The pathogen of Rhizoctonia solani inoculum was grown on sterile sorghum; and the pathogen of Pythium ultimum inoculum was grown on white millet.
(§3) Soybean seeds (Glycine max cv. AG4832) were planted in 2.5-inch square pots containing Berger BM2 germination mix amended with fertilizer (e.g., 14-14-14). Pots with soil were inoculated with the pathogen of R. solani or P. ultimum at time of planting. A hole was pressed into the soil to a depth of about 2 to 3 cm; the inoculum was added to the hole, followed by the seed which was then covered with soil. Two seeds per pot were planted. Plants were grown in a growth chamber at conditions of 20 to 24° C., 14 hour light cycle, 500 uM of light, and 65% humidity. The pots inoculated with P. ultimum were sub-irrigated every day; and the pots inoculated with R. solani were sub-irrigated every other day.
(§4) Seedling emergence was captured at 7 and 14 days after seeding. At 14 days, the top of the plant was removed and fresh weight was recorded. The plant weights from the seeds treated with test compounds (e.g., in formulations) were compared to the ones either from the inoculated non-treated seeds or non-inoculated non-treated seeds. Table 10 lists the results of the R. solani control in soybean upon seed treatment with test compounds, and Table 11 lists the results of the P. ultimum control in soybean upon seed treatment with test compounds, respectively.

[3] = test system: Mycosphaerella graminicola (synthetic Septoria tritici); test: Foliar protection test for wheat septoria leaf blotch control; assay type: in vivo; settings: foliar spray on Triticum aestivum cv. WinterHawk, inoculated 1 hour after treatment, evaluated 16 days later
[4] = test system: Diplodia maydis (Dm); test: In vitro pathogen growth inhibition assay, Dm; assay type: cell-based; settings: Stenocarpella maydis, 48 h
Outline: (§5)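 Spores of Dm, Fv and Pc were diluted in 17% V8 liquid medium; Rs used 1.5 mm mycelial plugs in ¼ PDB. Compounds from 2.5 mg/ml DMSO stocks were combined with inoculum, growth was read by OD600 at 24 and 48 h with blank subtraction, and the reported value is the concentration giving ≥90% inhibition.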

[5] = test system: Botrtyis cinerea (Bc); test: In vitro pathogen growth inhibition assay, Bc; assay type: cell-based; settings: 48 h
Outline: as §1

[6] = test system: Phytophthora capsici (Pc); test: In vitro pathogen growth inhibition assay, Pc; assay type: cell-based; settings: 48 h
Outline: as §5

[7] = test system: Rhizoctonia solani; test: Seed protectant for soybean seedling disease, R. solani; assay type: in vivo; settings: soybean from treated seeds, 0.025 mg/seed, R. solani inoculated; for Plant Weight: fresh weight at 14 days; for Improvement in plant weight: percentage of non-inoculated non-treated controls
Protocol: as §2, §3, §4

[8] = test system: Sphaerotheca fuliginea; test: Foliar protection for cucumber powdery mildew control; assay type: in vivo; settings: foliar spray on Cucumis sativus cv. Straight Eight, inoculated 24 hours after treatment, evaluated 7 days later
Outline: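 Protective foliar spray on 10-day-old Straight Eight cucumbers, with S. fuliginea spores dusted from infected stock plants 24 h after treatment. Disease developed at 23–27 °C, 60% RH and a 16 h photoperiod. Leaves were rated for mildew growth after 7 days; test rates 10 ppm or below.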

[9] = test system: Blumeria graminis f. sp. hordei; test: Foliar protection test for barley powdery mildew control; assay type: in vivo; settings: foliar spray on Hordeum vulgare cv. Perry, inoculated 24 hours after treatment, evaluated 7 days later
Outline: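 Protective foliar test: compound atomized onto both leaf surfaces of 6-day-old Hordeum vulgare cv. Perry, followed after 24 h by spore-cloud inoculation from colonized untreated plants. Disease rated on leaves 7 days on, plants held at 20 to 22° C and 70% RH.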

[10] = ≥90% growth inhibition, 48 hours, vs 2% DMSO control, read-out: Compound Concentration (ppm) sufficient for ≥90% inhibition of St
[11] = ≥90% growth inhibition, 48 hours, vs 2% DMSO control, read-out: Compound Concentration (ppm) sufficient for ≥90% inhibition of Dm
[12] = ≥90% growth inhibition, 48 hours, vs 2% DMSO control, read-out: Compound Concentration (ppm) sufficient for ≥90% inhibition of Bc
[13] = ≥90% growth inhibition, 48 hours, vs 2% DMSO control, read-out: Compound Concentration (ppm) sufficient for ≥90% inhibition of Pc

| Structure (SMILES) | IC90 ([1]; ≥90% inhibition, 48 hours vs 2% DMSO control, read-out: Compound Concentration (ppm) sufficient for ≥90% inhibition of growth, St) [µg/mL] | Plant Weight [2] [g] | Improvement in plant weight [2] [%] | Septoria Leaf Blotch Control at a compound concentration of 25 ppm or lower [3] | IC90 ([4]; ≥90% inhibition, 48 hours vs 2% DMSO control, read-out: Compound Concentration (ppm) sufficient for ≥90% inhibition of growth, Dm) [µg/mL] | IC90 ([5]; ≥90% inhibition, 48 hours vs 2% DMSO control, read-out: Compound Concentration (ppm) sufficient for ≥90% inhibition of growth, Bc) [µg/mL] | IC90 ([6]; ≥90% inhibition, 48 hours vs 2% DMSO control, read-out: Compound Concentration (ppm) sufficient for ≥90% inhibition of growth, Pc) [µg/mL] | Plant Weight [7] [g] | Improvement in plant weight [7] [%] | Cucumber Powdery Mildew Control at a compound concentration of 10 ppm or lower [8] | Barley Powdery Mildew Control at a compound concentration of 10 ppm or lower [9] | IC90 [1, 10] [µg/mL] | IC90 [4, 11] [µg/mL] | IC90 [5, 12] [µg/mL] | IC90 [6, 13] [µg/mL] |
| --- | --- | --- | --- | --- | --- | --- | --- | --- | --- | --- | --- | --- | --- | --- | --- |
| COc1ccc(F)cc1[C@H](Cn1c(=O)n(C(C)(C)C(=O)NC(C)C)c(=O)c2c(C)c(-n3nccn3)sc21)OCCC#N [Compound I-095, (R)-2-(1-(2-(2-cyanoethoxy)-2-(5-fluoro-2-methoxyphenyl)ethyl)-5-methyl-2,4-dioxo-6-(2H-1,2,3-triazol-2-yl)-1,4-dihydrothieno[2,3-d]pyrimidin-3 (2H)-yl)-N-isopropyl-2-methylpropanamide] | > 50 | 4.65 | 74 | AA (≥85% control of wheat septoria leaf blotch) | 0.08 (≈ 0.134 µM) | 0.4 (≈ 0.669 µM) | ≥ 2 | 7.54 | 93.9 | AA (≥85% control of cucumber powdery mildew) | AA (≥85% control of barley powdery mildew) |  |  |  |  |
| COc1ccc(F)cc1[C@H](Cn1c(=O)n(C(C)(C)C(=O)NC(C)C)c(=O)c2c(C)c(-n3cccn3)sc21)OCCC#N [Compound I-191, (R)-2-(1-(2-(2-cyanoethoxy)-2-(5-fluoro-2-methoxyphenyl)ethyl)-5-methyl-2,4-dioxo-6-(1H-pyrazol-1-yl)-1,4-dihydrothieno[2,3-d]pyrimidin-3 (2H)-yl)-N-isopropyl-2-methylpropanamide] |  | 5.00 | 80 | AA (≥85% control of wheat septoria leaf blotch) |  |  |  | 6.39 | 79.6 | AA (≥85% control of cucumber powdery mildew) | AA (≥85% control of barley powdery mildew) | ≥ 10 | ≥ 0.4 | 0.4 (≈ 0.67 µM) | 50 (≈ 83.8 µM) |
| COc1ccccc1[C@H](Cn1c(=O)n(C(C)(C)C(=O)NC(C)C)c(=O)c2c(C)c(-n3nccn3)sc21)OCCC#N [Compound I-193, (R)-2-(1-(2-(2-cyanoethoxy)-2-(2-methoxyphenyl)ethyl)-5-methyl-2,4-dioxo-6-(2H-1,2,3-triazol-2-yl)-1,4-dihydrothieno[2,3-d]pyrimidin-3 (2H)-yl)-N-isopropyl-2-methylpropanamide] |  | 5.36 | 86 | AA (≥85% control of wheat septoria leaf blotch) |  |  |  | 6.83 | 85.0 | AA (≥85% control of cucumber powdery mildew) | AA (≥85% control of barley powdery mildew) | ≥ 2 | 0.08 (≈ 0.138 µM) | ≥ 0.08 | 2 (≈ 3.45 µM) |

Reference: US10941157B2, “Pesticidal compositions and uses thereof” (Gilead Apollo, LLC, priority 2015, dated 2021)
